Experimental findings from US12612416B2, “Modulators of cystic fibrosis transmembrane conductance regulator” (VERTEX PHARMACEUTICALS INCORPORATED, priority 2020, dated 2026) are described below.

Read-outs that look alike come from different tables or passages of the source.

One data set addresses T1, F508del in NIH 3T3 cells (Homo sapiens, UniProt P13569, DEL508-508).
T1 construct: expressed in transfected cells
Description: 3T3 assay: membrane potential optical assay for F508del correction. Format: cell-based, mouse. The following applies: F508del NIH 3T3 cells; for EC50: compound incubation 18-24 hours at 37° C., forskolin activation; for 3T3 Max Activity: efficacy compared to lumacaftor in combination with acutely added 300 nM Ivacaftor. An excerpt: The assay utilizes fluorescent voltage sensing dyes to measure changes in membrane potential using a fluorescent plate reader (e.g., FLIPR III, Molecular Devices, Inc.) as a readout for increase in functional F508del in NIH 3T3 cells. The driving force for the response is the creation of a chloride ion gradient in conjunction with channel activation by a single liquid addition step after the cells have previously been treated with compounds and subsequently loaded with a voltage sensing dye.
To identify correctors of F508del, a single-addition HTS assay format was developed. This HTS assay utilizes fluorescent voltage sensing dyes to measure changes in membrane potential on the FLIPR III as a measurement for increase in gating (conductance) of F508del in F508del NIH 3T3 cells. The F508del NIH 3T3 cell cultures were incubated with the corrector compounds at a range of concentrations for 18-24 hours at 37° C., and subsequently loaded with a redistribution dye. The driving force for the response is a Cl^− ion gradient in conjunction with channel activation with forskolin in a single liquid addition step using a fluorescent plate reader such as FLIPR III.
Bath Solution #1: (in mM) NaCl 160, KCl 4.5, CaCl2) 2, MgCl2 1, HEPES 10, pH 7.4 with NaOH.
Chloride-free bath solution: Chloride salts in Bath Solution #1 (above) are substituted with gluconate salts.
NIH3T3 mouse fibroblasts stably expressing F508del are used for optical measurements of membrane potential. The cells are maintained at 37° C. in 5% CO2 and 90% humidity in Dulbecco's modified Eagle's medium supplemented with 2 mM glutamine, 10% fetal bovine serum, 1×NEAA, b-ME, 1×pen/strep, and 25 mM HEPES in 175 cm^2 culture flasks. For all optical assays, the cells were seeded at ˜20,000/well in 384-well Matrigel-coated plates. For the correction assays, the cells are cultured at 37° C. with and without compounds for 16-24 hours.

The conditions of data set [1]: amide bond, HATU/DIEA, DMF, 25.0 °C.
For data set [2] the following is noted: amide bond, 13-membered ring, HATU/DIEA, NMP, 25.0 °C.
Data set [3] addresses CFTR-mediated chloride transport in human intestinal epithelial enteroid cells (Homo sapiens, UniProt P13569). Kind of data set: Membrane potential dye, Enteroid Assay A. Format: cell-based. The protocol: Base medium (ADF+++) consisted of Advanced DMEM/Ham's F12, 2 mM Glutamax, 10 mM HEPES, […] penicillin/streptomycin.
Intestinal enteroid maintenance medium (IEMM) consisted of ADF+++, 1×B27 supplement, 1×N2 supplement, 1.25 mM N-acetyl cysteine, 10 mM Nicotinamide, 50 ng/mL hEGF, 10 nM Gastrin, 1 μg/mL hR-spondin-1, 100 ng/mL hNoggin, TGF-b type 1 inhibitor A-83-01, 100 μg/mL Primocin, 10 μM P38 MAPK inhibitor SB202190.
Bath 1 Buffer consisted of 1 mM MgCl2, 160 mM NaCl, 4.5 mM KCl, 10 mM HEPES, 10 mM Glucose, 2 mM CaCl2).
Chloride Free Buffer consisted of 1 mM Magnesium Gluconate, 2 mM Calcium Gluconate, 4.5 mM Potassium Gluconate, 160 mM Sodium Gluconate, 10 mM HEPES, 10 mM Glucose.
BathI Dye Solution consisted of Bath 1 Buffer, 0.04% Pluronic F127, 20 μM Methyl Oxonol, 30 μM CaCCinh-A01, 30 μM Chicago Sky Blue.
Chloride Free Dye Solution consisted of Chloride Free Buffer, 0.04% Pluronic F127, 20 μM Methyl Oxonol, 30 μM CaCCinh-A01, 30 μM Chicago Sky Blue.
Chloride Free Dye Stimulation Solution consisted of Chloride Free Dye Solution, 10 μM forskolin, 100 μM IBMX, and 300 nM Compound III.
Human intestinal epithelial enteroid cells were obtained from the Hubrecht Institute for Developmental Biology and Stem Cell Research, Utrecht, The Netherlands and expanded in T-Flasks as previously described (Dekkers J F, Wiegerinck C L, de Jonge H R, Bronsveld I, Janssens H M, de Winter-de Groot K M, Brandsma A M, de Jong N W M, Bijvelds M J C, Scholte B J, Nieuwenhuis E E S, van den Brink S, Clevers H, van der Ent C K, Middendorp S and M Beekman J M. A functional CFTR assay using primary cystic fibrosis intestinal organoids. Nat Med. 2013 July; 19(7):939-45.).
Cells were recovered in cell recovery solution, collected by centrifugation at 650 rpm for 5 minutes at 4° C., resuspended in TrypLE and incubated for 5 minutes at 37° C. Cells were then collected by centrifugation at 650 rpm for 5 minutes at 4° C. and resuspended in IEMM containing 10 μM ROCK inhibitor (RI). The cell suspension was passed through a 40 μm cell strainer and resuspended at 1×10^6 cells/mL in IEMM containing 10 μM RI. Cells were seeded at 5000 cells/well into multi-well plates and incubated for overnight at 37° C., 95% humidity and 5% CO2 prior to assay.
Enteroid cells were incubated with test compound in IEMM for 18-24 hours at 37° C., 95% humidity and 5% C02. […] Briefly, cells were washed 5 times in Bath 1 Buffer. Bath 1 Dye Solution was added, and the cells were incubated for 25 minutes at room temperature. Following dye incubation, cells were washed 3 times in Chloride Free Dye Solution. Chloride transport was initiated by addition of Chloride Free Dye Stimulation Solution and the fluorescence signal was read for 15 minutes. […] Chloride transport was then expressed as a percentage of the chloride transport following treatment with 3 μM (S)—N-((6-aminopyridin-2-yl)sulfonyl)-6-(3-fluoro-5-isobutoxyphenyl)-2-(2,2,4-trimethylpyrrolidin-1-yl)nicotinamide, 3 μM (R)-1-(2,2-difluorobenzo[d][1,3]dioxol-5-yl)-N-(1-(2,3-dihydroxypropyl)-6-fluoro-2-(1-hydroxy-2-methylpropan-2-yl)-1H-indol-5-yl)cyclopropanecarboxamide and 300 nM acute N-[2,4-bis(1,1-dimethylethyl)-5-hydroxyphenyl]-1,4-dihydro-4-oxoquinoline-3-carboxamide triple combination control (% Activity).

The target of data set [4] is T2, CFTR-mediated short-circuit current in F508del/MF-HBE cells (Homo sapiens, UniProt P13569, DEL508-508).
T2 construct: endogenous in cells; host or cells: primary human bronchial epithelial cells from CF subjects (F508del/MF)
Kind of data set: HBE assay: Ussing chamber assay of CFTR-mediated short-circuit currents. Particulars: F508del/MF-HBE, 20% human serum. Format: cell-based. On the procedure: Ussing chamber experiments were performed using human bronchial epithelial (HBE) cells derived from CF subjects heterozygous for F508del and a minimal function CFTR mutation (F508del/MF-HBE) and cultured as previously described (Neuberger T, Burton B, Clark H, Van Goor F Methods Mol Biol 2011:741:39-54). After four days the apical media was removed, and the cells were grown at an air liquid interface for >14 days prior to use.
To isolate the CFTR-mediated short-circuit (ISC) current, F508del/MF-HBE grown on Costar® Snapwell™ cell culture inserts were mounted in an Ussing chamber and the transepithelial ISC was measured under voltage-clamp recording conditions (Vhold=0 mV) at 37° C. The basolateral solution contained (in mM) 145 NaCl, 0.83K2HPO4, 3.3 KH2PO4, 1.2 MgCl2, 1.2 CaCl2), 10 Glucose, 10 HEPES (pH adjusted to 7.4 with NaOH) and the apical solution contained (in mM) 145 NaGluconate, 1.2 MgCl2, 1.2 CaCl2), 10 glucose, 10 HEPES (pH adjusted to 7.4 with NaOH) and 30 μM amiloride to block the epithelial sodium channel. Forskolin (20 μM) was added to the apical surface to activate CFTR, followed by apical addition of a CFTR inhibitor cocktail consisting of BPO, GlyH-101, and CFTR inhibitor 172 (each at 20 μM final assay concentration) to specifically isolate CFTR currents. The CFTR-mediated ISC (μA/cm^2) for each condition was determined from the peak forskolin response to the steady-state current following inhibition.
The activity of the CFTR corrector compounds on the CFTR-mediated ISC was determined in Ussing chamber studies as described above. The F508del/MF-HBE cell cultures were either incubated with the corrector compounds at a range of concentrations in combination with 1 μM Ivacaftor or were incubated with the corrector compounds at a single fixed concentration of 10 μM in combination with 1 μM Ivacaftor for 18-24 hours at 37° C. and in the presence of 20% human serum. The concentration of corrector compounds with 1 μM Ivacaftor during the 18-24 hours incubations was kept constant throughout the Ussing chamber measurement of the CFTR-mediated ISC to ensure compounds were present throughout the entire experiment.

T1 sequence (P13569 with tags, fused parts or gaps DEL508-508): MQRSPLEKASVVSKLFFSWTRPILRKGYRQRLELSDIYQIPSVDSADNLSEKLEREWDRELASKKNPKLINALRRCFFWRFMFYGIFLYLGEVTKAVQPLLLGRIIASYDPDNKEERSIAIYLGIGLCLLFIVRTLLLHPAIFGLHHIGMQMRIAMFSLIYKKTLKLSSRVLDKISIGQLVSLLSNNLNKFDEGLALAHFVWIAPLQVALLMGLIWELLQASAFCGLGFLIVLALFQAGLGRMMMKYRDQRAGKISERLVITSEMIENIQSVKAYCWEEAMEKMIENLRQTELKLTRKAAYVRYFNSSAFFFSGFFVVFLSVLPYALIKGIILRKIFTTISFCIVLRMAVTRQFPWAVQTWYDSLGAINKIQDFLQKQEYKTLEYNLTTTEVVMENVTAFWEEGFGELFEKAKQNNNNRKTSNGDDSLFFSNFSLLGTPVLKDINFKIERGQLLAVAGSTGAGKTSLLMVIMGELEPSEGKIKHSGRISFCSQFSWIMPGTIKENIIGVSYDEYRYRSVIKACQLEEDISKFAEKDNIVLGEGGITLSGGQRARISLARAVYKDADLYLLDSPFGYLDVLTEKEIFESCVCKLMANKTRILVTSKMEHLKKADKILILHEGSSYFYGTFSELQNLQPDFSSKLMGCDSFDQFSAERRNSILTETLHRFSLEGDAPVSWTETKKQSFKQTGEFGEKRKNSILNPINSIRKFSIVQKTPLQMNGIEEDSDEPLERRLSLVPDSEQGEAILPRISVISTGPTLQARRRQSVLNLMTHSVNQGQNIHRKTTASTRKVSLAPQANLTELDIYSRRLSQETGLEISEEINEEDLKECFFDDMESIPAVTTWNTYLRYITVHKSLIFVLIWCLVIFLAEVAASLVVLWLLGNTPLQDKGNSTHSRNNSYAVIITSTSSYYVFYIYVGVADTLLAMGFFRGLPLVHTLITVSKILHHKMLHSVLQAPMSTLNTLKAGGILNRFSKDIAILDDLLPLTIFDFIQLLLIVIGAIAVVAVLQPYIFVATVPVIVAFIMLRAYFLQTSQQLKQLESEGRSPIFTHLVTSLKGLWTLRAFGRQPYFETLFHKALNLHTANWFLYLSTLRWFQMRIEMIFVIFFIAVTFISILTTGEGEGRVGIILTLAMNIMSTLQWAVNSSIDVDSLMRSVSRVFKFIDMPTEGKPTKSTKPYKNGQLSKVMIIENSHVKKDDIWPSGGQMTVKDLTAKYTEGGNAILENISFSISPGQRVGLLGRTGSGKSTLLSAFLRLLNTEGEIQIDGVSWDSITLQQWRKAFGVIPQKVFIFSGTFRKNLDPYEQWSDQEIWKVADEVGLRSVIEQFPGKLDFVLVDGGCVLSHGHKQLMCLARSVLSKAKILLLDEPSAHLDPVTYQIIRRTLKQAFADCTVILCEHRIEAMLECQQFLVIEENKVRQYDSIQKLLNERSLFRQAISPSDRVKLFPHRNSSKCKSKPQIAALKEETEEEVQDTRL
T2 sequence (P13569 with tags, fused parts or gaps DEL508-508): as above
Sequence of CFTR-mediated chloride transport in human intestinal epithelial enteroid cells (P13569 with tags, fused parts or gaps DEL508-508): as above

With `Cc1cccc(C)c1-c1cc2nc(n1)NS(=O)(=O)c1cccc(c1)NC(=O)CCCCC2` [Compound 1, 6-(2,6-dimethylphenyl)-2,2-dioxo-2 λ6-thia-3,5,15,21-tetrazatricyclo[14.3.1.14,8]henicosa-1(20),4(21),5,7,16,18-hexaen-14-one], on F508del in NIH 3T3 cells, the EC50 (in general, the concentration giving half of the maximal effect) is under 1000 nM and the “3T3 Max Activity” value is “+++ (+++ is >60%)”. This compound came in with a ring closure, yield after HPLC in data set [1] (from Cc1cccc(C)c1-c1cc(CCCCCC(=O)O)nc(NS(=O)(=O)c2cccc(N)c2)n1, 15-membered ring, 33.5 mM, 0.083 h, 2 steps) of 40%.
As to `Cc1cccc(C)c1-c1cc2nc(n1)NS(=O)(=O)c1cccc(c1)NC(=O)c1cccc(c1)C2` [Compound 2, 5-(2,6-Dimethylphenyl)-9 λ6-thia-6,8,15,23-tetraazatetracyclo [15.3.1.13,7.110,14]tricosa-1(21),3(23),4,6,10,12,14(22),17,19-nonaene-9,9,16-trione], at F508del in NIH 3T3 cells, the EC50 lay within 1000 to 3000 nM and the “3T3 Max Activity” value is reported as “+++ (+++ is >60%)”. The compound also displayed a ring closure, yield after HPLC in data set [1] (from Cc1cccc(C)c1-c1cc(Cc2cccc(C(=O)O)c2)nc(NS(=O)(=O)c2cccc(N)c2)n1, 14-membered ring, 86.8 mM, 0.083 h, 3 steps) of 14%.
In the case of `Cc1cccc(C)c1-c1cc2nc(n1)NS(=O)(=O)c1cccc(c1)C(=O)N(C1CC3(CCN(C(=O)OC(C)(C)C)CC3)C1)[C@H](CC(C)C)CC2`, the ring closure, isolated yield in data set [2] (from Cc1cccc(C)c1-c1cc(CC[C@@H](CC(C)C)NC2CC3(CCN(C(=O)OC(C)(C)C)CC3)C2)nc(NS(=O)(=O)c2cccc(C(=O)O)c2)n1, 97.4 mM, 2.0 h) worked out at 68%.
In turn, `Cc1cccc(C)c1-c1cc2nc(n1)NS(=O)(=O)c1cccc(c1)C(=O)N(C1CC3(CC(NC(=O)OC(C)(C)C)C3)C1)[C@H](CC(C)C)CC2` (some centres unmarked) had a ring closure, isolated yield in data set [2] (from Cc1cccc(C)c1-c1cc(CC[C@@H](CC(C)C)NC2CC3(CC(NC(=O)OC(C)(C)C)C3)C2)nc(NS(=O)(=O)c2cccc(C(=O)O)c2)n1, 27.3 mM, 2.0 h) of 88%.
Regarding `Cc1cccc(C)c1-c1cc2nc(n1)NS(=O)(=O)c1cccc(c1)C(=O)O[C@H](c1ccc(C(C)(C)C)cn1)[C@@H](CC(C)C)N2C` [Compound 35], on F508del in NIH 3T3 cells, the concentration for a half-maximal effect (EC50) was under 1000 nM and the “3T3 Max Activity” value is “+++ (+++ is >60%)”. Besides, the “Ent. A Max Activity” value in data set [3] (% of chloride transport of triple combination control: 3 μM (S)-N-((6-aminopyridin-2-yl)sulfonyl)-6-(3-fluoro-5-isobutoxyphenyl)-2-(2,2,4-trimethylpyrrolidin-1-yl)nicotinamide, 3 μM tezacaftor, 300 nM acute ivacaftor) is recorded as “++ (++ is 30-60%)”. The EC50 in data set [3] (enteroid cells, 18-24 hours incubation, acute 10 μM forskolin and 300 nM ivacaftor, read-out: Ent. A EC50) fell in the range of 1000 to 3000 nM.
Take `Cc1cccc(C)c1-c1cc2nc(n1)NS(=O)(=O)c1cccc(c1)NC(=O)CCCC2` [Compound 12]: at F508del in NIH 3T3 cells, the EC50 fell in the range of 1000 to 3000 nM and the “3T3 Max Activity” value was “+++ (+++ is >60%)”.
Taken in the same sequence, the figures for `Cc1cccc(C)c1-c1cc2nc(n1)NS(=O)(=O)c1cccc(c1)NC(=O)CCC2` [Compound 13] were 1000 to 3000 nM and “+++ (+++ is >60%)”.
With `COC(=O)CCCN1CCC(C)c2cc(-c3c(C)cccc3C)nc(n2)NS(=O)(=O)c2cccc(c2)C1=O` (centres unmarked), in data set [2] (from COC(=O)CCCNCCC(C)c1cc(-c2c(C)cccc2C)nc(NS(=O)(=O)c2cccc(C(=O)O)c2)n1, 22.1 mM, 15.0 h), the ring closure, isolated yield was 90%.
Consider `Cc1cccc(C)c1-c1cc2nc(n1)NS(=O)(=O)c1cccc(c1)C(=O)N(Cc1nccc(N(C)C(C)C)n1)[C@H](CC(C)C)CC2` [Compound 60, (11S)-6-(2,6-dimethylphenyl)-11-isobutyl-12-[[4-[isopropyl(methyl)amino]pyrimidin-2-yl]methyl]-2,2-dioxo-2λ^6-thia-3,5,12,19-tetrazatricyclo[12.3.1.14,8]nonadeca-1(18),4(19),5,7,14,16-hexaen-13-one], for which the ring closure, yield after HPLC in data set [1] (from Cc1cccc(C)c1-c1cc(CC[C@@H](CC(C)C)NCc2nccc(N(C)C(C)C)n2)nc(NS(=O)(=O)c2cccc(C(=O)O)c2)n1, 13-membered ring, 12.4 mM, 2.0 h) is 49%. For the same compound, the “HBE Max. activity” value in data set [4] (in combination with 1 μM Ivacaftor, compared to known Vertex corrector with 18 μM Tezacaftor and 1 μM Ivacaftor) is recorded as “+++ (+++ is >60%)”. The EC50 in data set [4] (range of concentrations in combination with 1 μM Ivacaftor, 18-24 hours) was under 1000 nM.
